This assay deals with T1, Human CARM1 (PRMT4) (Homo sapiens, UniProt Q86X55).
T1 construct: Flag-CARM1-His; made in house; host or cells: HEK 293F cells (BacMam baculovirus, pFastBacMam)
T1 sequence (Q86X55 2-585 isoform Q86X55-1): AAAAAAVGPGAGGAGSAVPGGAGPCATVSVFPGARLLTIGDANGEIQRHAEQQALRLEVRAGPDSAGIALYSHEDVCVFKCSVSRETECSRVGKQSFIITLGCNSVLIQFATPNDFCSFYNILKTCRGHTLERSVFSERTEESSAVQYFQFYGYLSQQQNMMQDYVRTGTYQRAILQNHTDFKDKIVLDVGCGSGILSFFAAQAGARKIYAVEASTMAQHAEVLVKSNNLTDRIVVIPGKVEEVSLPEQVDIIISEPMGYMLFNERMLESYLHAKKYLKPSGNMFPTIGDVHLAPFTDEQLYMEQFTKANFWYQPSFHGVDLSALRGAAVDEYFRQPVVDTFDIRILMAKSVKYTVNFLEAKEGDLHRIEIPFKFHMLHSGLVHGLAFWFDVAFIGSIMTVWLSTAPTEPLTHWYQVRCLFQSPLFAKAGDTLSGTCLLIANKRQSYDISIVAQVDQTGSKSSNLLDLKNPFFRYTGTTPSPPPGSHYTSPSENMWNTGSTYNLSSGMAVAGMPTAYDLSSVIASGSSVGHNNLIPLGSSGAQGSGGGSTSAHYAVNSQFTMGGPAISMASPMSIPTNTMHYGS
Description: CARM1 biochemical assay (3H-SAM Flashplate, peptide substrate). The following applies: read-out: CARM1_ IC50. A digest of the protocol: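 FLAG/His-tagged human CARM1 (isoform 1, Δ539-561, baculovirus-expressed), 0.25 nM, preincubated 30 min at room temperature with compound (2% DMSO) in 20 mM Bicine pH 7.6, then reacted with 30 nM 3H-SAM and 250 nM biotinylated H3 16-30 peptide (R26 monomethyl). Stopped with 300 uM cold SAM; labelled peptide captured on streptavidin Flashplate; % inhibition versus DMSO and 1 mM SAH controls fitted to a 4- or 3-parameter curve.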

Counter-ions that a name gives are not always drawn.

The term IC50 denotes the concentration that inhibits the measured activity by half. Turning to `CN(CCN)Cc1cccc(-c2nc(N(C)C3CCOCC3)c3cnn(C4CC4)c3n2)c1` [Compound 119], the IC50 is 4.77 nM.
The value for `CNCCN(C)Cc1cccc(-c2cc(NC3CCOCC3)c3cnn(C(C)C)c3n2)c1` [Compound 76] was 13.2 nM; that for `CNCCN(C)Cc1cccc(-c2cc(-c3ccoc3)c3cnn(C(C)C)c3n2)c1` [Compound 67] was 28.1 nM; that for `CNCCN(C)Cc1cccc(-c2nc(NCc3ccccn3)c3cnn(C4CC4)c3n2)c1` [Compound 9] was 7.59 nM.
In the case of `CNCCN(C)Cc1cccc(-c2cc(NC3COC3)c3cnn(C(C)C)c3n2)c1` [Compound 58], the half-inhibitory concentration (IC50) was found to be 22.2 nM.
The value for `CNCCN(C)Cc1cccc(-c2cc(N(C)C)c3cnn(C(C)C)c3n2)c1` [Compound 103] was 57.7 nM.
As for `CCC(O)c1cc(-c2cccc(CN(C)CCNC)c2)nc2c1cnn2C(C)C` (stereo not drawn) [Compound 48], the concentration for half-maximal inhibition (IC50) was 154 nM.
In the case of `NCCNCc1ccc(-c2ccc3ncn(CC4CCCNC4)c3c2)cc1` (stereo not drawn) [Compound 81], the concentration for half-maximal inhibition (IC50) is 4270 nM.
The value for `CNCCN(C)Cc1cccc(-c2cc(N3CCOCC3)n3ncc(C(C)C)c3n2)c1` [Compound 62, N1-(3-(3-isopropyl-7-morpholinopyrazolo[1,5-a]pyrimidin-5-yl)benzyl)-N1,N2-dimethylethane-1,2-diamine formate] was 20.8 nM; that for `CNCCN(C)Cc1cccc(-c2ccc3cnn(C(C)C)c3c2)c1` [Compound 100] was 3700 nM.
The value for `CNCCN(C)Cc1cccc(-c2cc(C(=O)NCCCCCC(=O)NCC3CCOCC3)c3cnn(C(C)C)c3n2)c1` [Compound 112] was 23.9 nM; that for `CCS(=O)(=O)Nc1cc(-c2cccc(CN(C)CCN)c2)nc2c1cnn2C(C)C` [Compound 111] was 131 nM; that for `CC(C)n1ncc2c(N3CCOCC3)cc(-c3cccc(CN(C)CCN)c3)nc21` [Compound 61, N1-(3-(1-isopropyl-4-morpholino-1H-pyrazolo[3,4-b]pyridin-6-yl)benzyl)-N1-methylethane-1,2-diamine] was 5.22 nM.
On to `CNCCN(C)Cc1cccc(-c2cc(N3CCOCC3)c3cnn(C(C)C)c3n2)c1` [Compound 68], for which the half-maximal inhibitory concentration (IC50) turned out to be 9.84 nM.
For `CNCCN(C)Cc1cccc(-c2cc(C(=O)NCc3cc(C)nn3C)c3cnn(C(C)C)c3n2)c1` [Compound 120], the IC50 was determined as 35.6 nM.
For `CNCCN(C)Cc1cccc(-c2cc(C(=O)NCCCCC(=O)NCc3ccn(C)n3)c3cnn(C(C)C)c3n2)c1` [Compound 122], the IC50 turned out to be 13.5 nM.
With `CNCCN(C)Cc1cccc(-c2cnc3c(c2)c(C2CC2)nn3CC2CCOCC2)c1` [Compound 4] the figure was 1400 nM.
With `COc1cccc(CCn2cnc3ccc(-c4ccc(CNCCN)cc4)cc32)c1` [Compound 94] the figure was 4270 nM.
